Results as given in patent US12319913B2, “5-halouracil-modified microRNAs and their use in the treatment of cancer” (The Research Foundation for The State University of New York, priority 2018, dated 2025).
[5FU] = 5-fluorouracil base replacing uracil

Experiments:
cancer cells = experiment: Real-time qRT-PCR of modified miR entry into cancer cells; format: cell-based, human; conditions: quantitative Real-Time PCR
Procedure: Real-time qRT-PCR analysis of nucleic acid expression. The expression levels of microRNAs in cancer cells were quantified. Briefly, the primers specific to the microRNA of interest and an internal control RNU44 gene were purchased from Ambion. cDNA synthesis was performed by the High Capacity cDNA Synthesis Kit (Applied Biosystems) with miRNA-specific primers. Real-time qRT-PCR was carried out on an Applied Biosystems 7500 Real-Time PCR machine with miRNA-specific primers by TaqMan Gene Expression Assay (Applied Biosystems). Expression level of the exemplary miRs of the present disclosure was calculated by the ΔΔCT method based on the internal control RNU44, normalized to the control group and plotted as relative quantification.

[1] = tested on: HCT116, RKO, SW480, and SW620 colon cancer cells; experiment: FITC-Annexin V apoptosis assay; set-up: species or system human; conditions: FACS-based FITC-Annexin assay, all 4 colon cancer cell lines, compared to native miR-129 and negative control miRNA
Procedure: Apoptosis Assay. To distinguish between early and late apoptosis, a fluorescein isothiocyanate (FITC)—Annexin assay was done (Becton Dickinson). HCT116, RKO, SW480 and SW620 cells were plated into 6 well plates (1×10^5) cells per well, after 24 h, cells were transfected with 25 nM modified miRNAs using Oligofectamine. Forty-eight hours after transfection, cells were harvested, stained with propidium iodide and anti-annexin-V antibody (Annexin V-FITC Apoptosis Detection kit, Invitrogen, CA, USA) following the manufacturer's protocol, and stained cells were detected by flow cytometry.

HCT-116 cells = experiment: Cell cycle analysis by flow cytometry, colon cancer cells; format: cell-based, human
Procedure: Cell cycle analysis: Twenty-four hours after transfection, cells were harvested and resuspended at 0.5 to 1×10^6 cells/mL in modified Krishan's buffer supplemented with 0.02 mg/mL RNase H and 0.05 mg/mL propidium iodide. Stained cells were detected by flow cytometry and results were analyzed with Modfit LT™ software. The experiments for cell cycle analysis were performed at least three times.

[2] = tested on: HCT116 derived colon cancer stem cells; format: cell-based
Procedure: For transfections, 1×10^5 cells were plated in six-well plates and transfected with 100 nM of control non-specific miRNA (Thermo Fischer), a modified microRNA, or exogenous native microRNA after 24 hours using Oligofectamine (Thermo Fischer) following the manufacturer's protocols. For reagent free transfection, cells were plated in 6 well plates at (1×10^5) cells per well. Twenty-four hours later 100 pmol miRNA (Control, miR-15a, Mimic-1) were diluted in Optimem (Thermo Fischer) and added to the plate. Media was changed after 24 hours. Media was supplemented with 10% fetal bovine serum (Thermo Fischer). Briefly, cells were cultured in growth media (DMEM/F12 supplemented with B27, 10 ng/mL bFGF, and 20 ng/mL EGF (Life Technologies) in ultra-low attachment flasks) for up to 6 days. The spheroid cells were maintained by collection through gentle centrifugation, dissociation to single cells and replating.
miR-129 mimics eliminated chemotherapy resistant colon cancer stem cells. To determine the impact of certain exemplary modified microRNAs of the present disclosure (i.e., miR-129 mimics) on 5-FU resistant colon cancer stem cells, HCT116 derived colon cancer stem cells were treated with various concentrations of Mimic-1 or 5-FU.

A549 lung cancer cells = experiment: Cell proliferation, A549; format: cell-based, human; conditions: for lung cancer cell proliferation: A549, compared to negative controls; for inhibition of cell proliferation: A549, compared to unmodified miR or negative controls
How it was run: (§1)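 Cells were transfected with 100 nM control, modified or native miRNA via Oligofectamine, or reagent-free with 100 pmol miRNA, then reseeded 24 h later at 2000 cells/well. WST-1 was added for 1 h on days 1 to 5, and O.D. was taken as absorbance at 450 nm minus 630 nm.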

AGS stomach cancer cells = experiment: Cell proliferation, AGS; format: cell-based, human; conditions: compared to negative controls
How it was run: as §1

[3] = tested on: acute lymphocytic leukemia cell line (REH); experiment: Cell proliferation, REH; format: cell-based, human; conditions: 50 nM, 25 nM, 12.5 nM, 6.25 nM, and 3.125 nM
[4] = tested on: colorectal cancer stem cell xenograft; experiment: Colorectal cancer stem cell mouse xenograft model; format: in vivo; conditions: cells pre transfected, eight weeks after injection, n=8
Procedure: Mouse subcutaneous tumor implantation model: Two days before injection, HCT116 colorectal cancer stem cells or MDA-MB-231 breast cancer cells were plated at 5×10^5/well in a 6-well ultra low attachment plate. 20 μL of the virus or 100 pmole exemplary modified miR-129 or modified miR-15a were used to transduce or transfect cells. Forty-eight hours later, cells were collected and re-suspended at 10^6/ml in DMEM/F12 knockout media with 30% matrigel. Ten-twelve week-old NOD/SCID mice (Jackson Laboratories, Bar Harbor, […], USA) were used for tumor implantation. The mice were anesthetized by isoflurane inhalation. 100 μL of cell suspension was injected subcutaneously into both sides of the lower back area. The tumor size was measured using a caliper, and tumor volume was calculated using the formula V=length×width^2/2.
Modified miR-15a inhibits cancer development and progression in vivo. A colorectal cancer stem cell mouse xenograft model was established that included colorectal cancer cells that have been either pre transfected with modified miR-15a or negative control miRNA. Eight weeks after injection, tumors were measured and harvested.

Question: “CU^FU^FU^FU^FU^FGCGGU^FCU^FGGGCU^FU^FGC (CUUUUUGCGGUCUGGGCUUGC; RNA, [5FU] at 2, 3, 4, 5, 6, 11, 13, 18, 19, backbone not given here) [modified miR-129]” was tested. Which “entry into cancer cells” value (cancer cells) did it give?
Answer: enter cancer cells

Question: And the induction of apoptosis [1]?
Answer: 2 to 30 fold

Question: What about the “G1 arrest, potency relative to native miR-129” value (HCT-116 cells; HCT-116, flow cytometry) of the same substance?
Answer: more than two-fold

Question: And the “proliferation of HCT116 colon cancer stem cells” value ([2]; 25 nM, day 6)?
Answer: nearly completely blocked

Question: What about the “elimination of 5-FU resistant colon cancer stem cells” value ([2]; 100 nM) of the same substance?
Answer: over 80%

Question: And the “killing of 5-FU resistant cancer stem cells, dose dependence” value ([2]; increasing concentrations, FIG. 6)?
Answer: killed 5-FU resistance cancer stem cells in a dose dependent manner

Question: And the “lung cancer cell proliferation” value (A549 lung cancer cells)?
Answer: inhibited

Question: And the “inhibition of cell proliferation” value (A549 lung cancer cells)?
Answer: enhanced ability to inhibit

Question: And the “gastric cancer cell proliferation” value (AGS stomach cancer cells)?
Answer: inhibited

Question: And the “leukemia cancer cell proliferation, dose dependence” value [3]?
Answer: inhibited in a dose dependent manner

Question: With “U^FAGCAGCACAU^FAAU^FGGU^FU^FU^FGU^FG (UAGCAGCACAUAAUGGUUUGUG; RNA, [5FU] at 1, 11, 14, 17, 18, 19, 21, backbone not given here) [modified miR-15a]” as the substance, how does the “increase in the G1/S ratio” value (HCT-116 cells; colon cancer cells, compared to the control) read?
Answer: 7 fold

Question: And the “reduction in tumor size” value [4]?
Answer: > 25 ×

Question: What about the “lung cancer cell proliferation” value (A549 lung cancer cells) of the same substance?
Answer: inhibited

Question: What about the “inhibition of cell proliferation” value (A549 lung cancer cells) of the same substance?
Answer: enhanced ability to inhibit

Question: And the “gastric cancer cell proliferation” value (AGS stomach cancer cells)?
Answer: inhibited

Question: And the “leukemia cancer cell proliferation, dose dependence” value [3]?
Answer: inhibited in a dose dependent manner
